Results on 23 molecules are retold here after patent US10780095B2, “Compositions and methods for treating disorders of circadian and diurnal rhythms using prokineticin 2 agonists and antagonists” (THE REGENTS OF THE UNIVERSITY OF CALIFORNIA, priority 2016, dated 2020).

The structures appear in SMILES notation. Values joined by “and” are separate entries in the source; they are usually repeats but may differ in a detail not shown here. Equal values may be shown once.

The target in one experiment is recombinant PKR1 (Homo sapiens (Human), UniProt Q8TCW9). Briefly: Aequorin-based luminescent Ca2+ mobilization assay, antagonist mode, PKR1. The conditions noted are these: CHO cells stably expressing aequorin and recombinant PKR1; challenge with recombinant PK2; Ki converted from IC50 by IC50/(1+[PK2]/EC50PK2). Format: cell-based. The method, then:
(§1) An aequorin-based luminescent assay for calcium mobilization was used to measure mobilization of intracellular Ca^2+ (Bullock et al., Mol Pharmacol 65, 582-588, 2004). Chinese hamster ovary (CHO) cells stably expressing photoprotein aequorin and recombinant PKR1 or PKR2 were tested by this method. Briefly, the cells were charged in Opti-MEM™ (Invitrogen) containing 8 μM of coelenterazine cp at 37° C. for 2 hours. Cells were detached by brief trypsinization and maintained in Hank's Balanced Salt Solution (HBSS) plus 10 mM HEPES (pH7.5) and 0.1% BSA at about 5×10^5 cells/ml. Luminescence measurements were made using a Berthold luminometer.
(§2) All compounds were diluted in HBSS plus 10 mM HEPES (pH7.5) and 0.1% BSA. To test the agonist activity, 100 μl of cells were injected into the tubes with 20 μl of compounds. For antagonist assays, 80 μl cells were incubated in the tubes with 20 μl different concentrations of antagonists at room temperature for 20 minutes, and then 100 μl of recombinant PK2 were injected. The IC50 obtained from the assays were then converted to Ki values using the formula: IC50/(1+[PK2]/EC50PK2).

Another experiment deals with recombinant PKR2 (Homo sapiens (Human), UniProt Q8NFJ6). Kind of experiment: Aequorin-based luminescent Ca2+ mobilization assay, antagonist mode, PKR2. Format: cell-based. The conditions noted are these: CHO cells stably expressing aequorin and recombinant PKR2; challenge with recombinant PK2; Ki converted from IC50 by IC50/(1+[PK2]/EC50PK2). The protocol: as §1, §2
Sequence of recombinant PKR2 (Q8NFJ6 whole entry): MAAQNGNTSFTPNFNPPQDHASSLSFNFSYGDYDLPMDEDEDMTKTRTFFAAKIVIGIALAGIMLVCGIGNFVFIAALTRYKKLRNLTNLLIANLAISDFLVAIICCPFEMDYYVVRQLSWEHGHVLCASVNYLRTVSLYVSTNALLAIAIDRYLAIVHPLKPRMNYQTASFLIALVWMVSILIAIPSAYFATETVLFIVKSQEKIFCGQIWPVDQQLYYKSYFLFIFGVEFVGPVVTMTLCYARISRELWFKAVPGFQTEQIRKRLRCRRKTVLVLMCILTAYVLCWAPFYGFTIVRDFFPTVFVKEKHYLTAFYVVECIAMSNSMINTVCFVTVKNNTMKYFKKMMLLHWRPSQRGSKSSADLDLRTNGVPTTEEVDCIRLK
Experiment [1] concerns mice. Briefly: Locomotor activity in mice after PK2 antagonist. Format: in vivo.
Experiment [2] relates to mice. Briefly: Arousal level (EEG/EMG wake time) in mice after PK2 antagonist. Format: in vivo.
Another experiment relates to monkeys. Briefly: Sleep time in monkeys (wireless sleep tracker) after PK2 antagonist. Format: in vivo, Macaca fascicularis.

Sequence of recombinant PKR1 (Q8TCW9 whole entry): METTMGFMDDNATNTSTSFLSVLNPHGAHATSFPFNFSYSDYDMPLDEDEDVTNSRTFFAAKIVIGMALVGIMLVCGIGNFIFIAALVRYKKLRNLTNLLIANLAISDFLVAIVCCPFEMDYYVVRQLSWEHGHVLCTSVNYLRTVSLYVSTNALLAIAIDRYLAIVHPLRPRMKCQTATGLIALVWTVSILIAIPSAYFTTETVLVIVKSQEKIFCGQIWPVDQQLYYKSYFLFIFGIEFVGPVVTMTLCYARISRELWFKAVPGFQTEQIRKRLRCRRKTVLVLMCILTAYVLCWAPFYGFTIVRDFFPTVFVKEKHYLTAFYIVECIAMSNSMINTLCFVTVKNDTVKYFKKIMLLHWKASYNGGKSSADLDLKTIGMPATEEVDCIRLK

On to `CC(C)CN(Cc1cc(Cl)c2c(c1)OCCCO2)C(=O)C(C)CNCc1ccc(F)c(O)c1` (racemic) [(±)-2-Methyl-3-((3-hydroxy-4-fluoro)benzylamino)-N-(9-chloro-3,4-dihydro-2H-1,5-benzodioxepin-7-ylmethyl)-N-isobutylpropanamide], for which, at recombinant PKR1, the Ki is 4.4 nM.

In the case of `COc1cc(CNCC(C)C(=O)N(Cc2cc(Cl)c3c(c2)OCCCO3)CC(C)C)c(F)cc1F` (racemic) [(±)-2-Methyl-3-((3-methoxy-4,6-difluoro)benzylamino)-N-(9-chloro-3,4-dihydro-2H-1,5-benzodioxepin-7-ylmethyl)-N-isobutylpropanamide], the inhibition constant Ki on recombinant PKR1 was determined as 43.5 nM.

As to `CC(C)CN(Cc1cc(Cl)c2c(c1)OCCCO2)C(=O)C(C)CNCc1cccc2nc[nH]c12` (racemic) [(±)-2-Methyl-3-(benzimidazol-4-ylmethylamino)-N-(9-chloro-3,4-dihydro-2H-1,5-benzodioxepin-7-ylmethyl)-N-isobutylpropanamide], the inhibitory constant (Ki) was 2.1 nM at recombinant PKR2 and 5.6 nM at recombinant PKR1.

Take `COc1ccccc1CN1CCO[C@@H](C(=O)N(Cc2cc(Cl)c3c(c2)OCCCO3)CC(C)C)C1` [(−)-(2R)-1-(2-Methoxybenzyl)-N-(9-chloro-3,4-dihydro-2H-1,5-benzodioxepin-7-ylmethyl)-N-isobutylmorpholine-2-carboxamide]: at recombinant PKR1, the inhibitory constant (Ki) was determined as 1.49 nM.

Take `COc1cccc(CN2CCO[C@@H](C(=O)N(Cc3cc(Cl)c4c(c3)OCCCO4)CC(C)C)C2)c1` [(−)-(2R)-1-(3-Methoxybenzyl)-N-(9-chloro-3,4-dihydro-2H-1,5-benzodioxepin-7-ylmethyl)-N-isobutylmorpholine-2-carboxamide]: the Ki on recombinant PKR1 was found to be 2.5 nM.

`COc1cc(CN2CCO[C@@H](C(=O)N(Cc3cc(Cl)c4c(c3)OCCCO4)CC(C)C)C2)c(F)cc1F` [(−)-(2R)-1-(4,6-Difluoro-3-methoxybenzyl)-N-(9-chloro-3,4-dihydro-2H-1,5-benzodioxepin-7-ylmethyl)-N-isobutylmorpholine-2-carboxamide]: the Ki on recombinant PKR1 was 4.09 nM.

`COc1cc(F)ccc1CN1CCO[C@@H](C(=O)N(Cc2cc(Cl)c3c(c2)OCCCO3)CC(C)C)C1` [(−)-(2R)-1-(4-Fluoro-2-methoxybenzyl)-N-(9-chloro-3,4-dihydro-2H-1,5-benzodioxepin-7-ylmethyl)-N-isobutylmorpholine-2-carboxamide]: the Ki at recombinant PKR1 is 7.3 nM.

Take `COc1cc(CN2CCO[C@@H](C(=O)N(Cc3cc(Cl)c4c(c3)OCCCO4)CC(C)C)C2)ccc1F` [(−)-(2R)-1-(4-Fluoro-3-methoxybenzyl)-N-(9-chloro-3,4-dihydro-2H-1,5-benzodioxepin-7-ylmethyl)-N-isobutylmorpholine-2-carboxamide]: the Ki on recombinant PKR2 is 1.9 nM; at recombinant PKR1, 2.6 nM and 5.4 nM.

Regarding `COc1ccc(F)cc1CN1CCO[C@@H](C(=O)N(Cc2cc(Cl)c3c(c2)OCCCO3)CC(C)C)C1` [(−)-(2R)-1-(5-Fluoro-2-methoxybenzyl)-N-(9-chloro-3,4-dihydro-2H-1,5-benzodioxepin-7-ylmethyl)-N-isobutylmorpholine-2-carboxamide], the Ki at recombinant PKR1 was determined as 7.3 nM.

`CC(C)CN(Cc1cc(Cl)c2c(c1)OCCCO2)C(=O)[C@H]1CN(Cc2cc(F)cc3nc[nH]c23)CCO1` [(−)-(2R)-1-(5-fluro-benzimidazol-4-ylmethyl)-N-(9-chloro-3,4-dihydro-2H-1,5-benzodioxepin-7-ylmethyl)-N-isobutylmorpholine-2-carboxamide]: the Ki on recombinant PKR1 amounted to 6.14 nM.

As for `COc1ccc(F)c(CN2CCO[C@@H](C(=O)N(Cc3cc(Cl)c4c(c3)OCCCO4)CC(C)C)C2)c1` [(−)-(2R)-1-(6-Fluoro-3-methoxybenzyl)-N-(9-chloro-3,4-dihydro-2H-1,5-benzodioxepin-7-ylmethyl)-N-isobutylmorpholine-2-carboxamide], the Ki at recombinant PKR1 came out at 10 nM.

Turning to `CC(C)CN(Cc1cc(Cl)c2c(c1)OCCCO2)C(=O)[C@H](C)CNCc1cccc2nc[nH]c12` [(−)-(2R)-2-Methyl-3-(benzimidazol-4-ylmethylamino)-N-(9-chloro-3,4-dihydro-2H-1,5-benzodioxepin-7-ylmethyl)-N-isobutylpropanamide], at recombinant PKR1, the inhibition constant (Ki) is 3.5 nM and 4.2 nM.

Turning to `COc1c(F)cccc1CN1CC[C@@H](C(=O)N(Cc2cc(Cl)c3c(c2)OCCCO3)CC(C)C)C1` [(−)-(3R)-1-(3-Fluoro-2-methoxybenzyl)-N-(9-chloro-3,4-dihydro-2H-1,5-benzodioxepin-7-ylmethyl)-N-isobutylpyrrolidine-3-carboxamide], on recombinant PKR1, the Ki stood at 170 nM.

For `COc1cc(CN2CCC[C@@H](C(=O)N(Cc3cc(Cl)c4c(c3)OCCCO4)CC(C)C)C2)c(F)cc1F` [(−)-(3R)-1-(4,6-Difluoro-3-methoxybenzyl)-N-(9-chloro-3,4-dihydro-2H-1,5-benzodioxepin-7-ylmethyl)-N-isobutylpiperidine-3-carboxamide], the Ki on recombinant PKR1 came to 13.8 nM.

As to `COc1cc(CN2CC[C@@H](C(=O)N(Cc3cc(Cl)c4c(c3)OCCCO4)CC(C)C)C2)c(F)cc1F` [(−)-(3R)-1-(4,6-Difluoro-3-methoxybenzyl)-N-(9-chloro-3,4-dihydro-2H-1,5-benzodioxepin-7-ylmethyl)-N-isobutylpyrrolidine-3-carboxamide], the Ki at recombinant PKR1 was 6.14 nM.

As for `COc1cc(F)ccc1CN1CC[C@@H](C(=O)N(Cc2cc(Cl)c3c(c2)OCCCO3)CC(C)C)C1` [(−)-(3R)-1-(4-Fluoro-2-methoxybenzyl)-N-(9-chloro-3,4-dihydro-2H-1,5-benzodioxepin-7-ylmethyl)-N-isobutylpyrrolidine-3-carboxamide], on recombinant PKR1, the Ki turned out to be 9.32 nM.

For the molecule `CC(C)CN(Cc1cc(Cl)c2c(c1)OCCCO2)C(=O)[C@@H]1CCN(Cc2ccc(F)c(O)c2)C1` [(−)-(3R)-1-(4-Fluoro-3-hydroxybenzyl)-N-(9-chloro-3,4-dihydro-2H-1,5-benzodioxepin-7-ylmethyl)-N-isobutylpyrrolidine-3-carboxamide], on recombinant PKR1, the inhibitory constant (Ki) was 107 nM.

In the case of `COc1ccc(F)cc1CN1CC[C@@H](C(=O)N(Cc2cc(Cl)c3c(c2)OCCCO3)CC(C)C)C1` [(−)-(3R)-1-(5-Fluoro-2-methoxybenzyl)-N-(9-chloro-3,4-dihydro-2H-1,5-benzodioxepin-7-ylmethyl)-N-isobutylpyrrolidine-3-carboxamide], the Ki on recombinant PKR1 was 9.3 nM and 6.9 nM.

For the molecule `CC(C)CN(Cc1cc(Cl)c2c(c1)OCCCO2)C(=O)[C@@H]1CCN(Cc2cc(F)cc3nc[nH]c23)C1` [(−)-(3R)-1-(5-fluro-benzimidazol-4-ylmethyl)-N-(9-chloro-3,4-dihydro-2H-1,5-benzodioxepin-7-ylmethyl)-N-isobutylpyrrolidine-3-carboxamide], the inhibitory constant (Ki) on recombinant PKR1 came out at 71.3 nM.

As for `COc1ccc(F)c(CN2CC[C@@H](C(=O)N(Cc3cc(Cl)c4c(c3)OCCCO4)CC(C)C)C2)c1` [(−)-(3R)-1-(6-Fluoro-3-methoxybenzyl)-N-(9-chloro-3,4-dihydro-2H-1,5-benzodioxepin-7-ylmethyl)-N-isobutylpyrrolidine-3-carboxamide], at recombinant PKR1, the Ki was 301 nM.

Consider `CC(C)CN(Cc1cc(Cl)c2c(c1)OCCCO2)C(=O)[C@@H]1CCCN(Cc2cccc3nc[nH]c23)C1` [(−)-(3R)-1-(benzimidazol-4-ylmethyl)-N-(9-chloro-3,4-dihydro-2H-1,5-benzodioxepin-7-ylmethyl)-N-isobutylpiperidine-3-carboxamide], for which the values for the Ki on recombinant PKR2 and on recombinant PKR1 were 3 nM and 97 nM, respectively.

For `CC(C)CN(Cc1cc(Cl)c2c(c1)OCCCO2)C(=O)[C@@H]1CCN(Cc2cccc3nc[nH]c23)C1` [(−)-(3R)-1-(benzimidazol-4-ylmethyl)-N-(9-chloro-3,4-dihydro-2H-1,5-benzodioxepin-7-ylmethyl)-N-isobutylpyrrolidine-3-carboxamide], the Ki worked out at 1.7 nM at recombinant PKR2 and 2.6 nM on recombinant PKR1.

Consider `COc1cc(CN2CC[C@@H](C(=O)N(Cc3cc(Cl)c4c(c3)OCCCO4)CC(C)C)C2)ccc1F` [PKRA83, (3R)-1-(4-Fluoro-3-methoxybenzyl)-N-(9-chloro-3,4-dihydro-2H-1,5-benzodioxepin-7-ylmethyl)-N-isobutylpyrrolidine-3-carb oxamide], for which the locomotor activity result with mice [1] (mice, 40 mg/kg intraperitoneally at ZT6, vs vehicle (FIG. 6A)) is “significantly increased”; with mice [1] (wild type mice, ocular topic delivery during the late night, vs control (FIG. 13)), “increased”. Moreover, in the experiment on mice [2] (40 mg/kg intraperitoneally at ZT6, vs vehicle (FIG. 6B)), the “wakefulness (wake time)” value is “significantly increased”. Also, the wake time entry in the experiment on mice [2] (ocular topic application at day time, P<0.05 paired t-test (FIG. 14)) is listed as “significantly increased”. Also, the “increase of the sleep time” value in the experiment on monkeys (10 mg/kg intramuscularly at ZT10, vs vehicle (FIG. 6C)) was above 70 min. The sleep time result with monkeys (nasal topic application, P<0.05 paired t-test (FIG. 19)) is listed as “significantly increased”; in the experiment on monkeys (ocular topic application, P<0.05 paired t-test (FIG. 15)), “significantly increased”.

The term Ki denotes the equilibrium dissociation constant of an inhibitor or competing ligand from its target.
